Test results: patent publication US10829473B2, “Modulators of the cystic fibrosis transmembrane conductance regulator protein and methods of use” (AbbVie Overseas S.Á.R.L., priority 2017, dated 2020)
Read-outs that look alike come from different tables or passages of the source. Marks after values point to notes of the source that are not given here.

Target: T1, F508delCFTR (Homo sapiens, UniProt P13569, DEL508-508)
T1 construct: expressed in transfected cells; host or cells: CFBE41o- human lung derived epithelial cells (CFBE41o-F508delCFTR-HRP), doxycycline-inducible
Assay: Cell Surface Expression-Horse Radish Peroxidase (CSE-HRP) Assay;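 on EC50 (with co-corrector): co-corrector chromenyl benzoic acid corrector at 2 or 3 µM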;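 on Maximum % activity (without co-corrector): % of on-plate positive control chromenyl benzoic acid corrector at 2 or 3 µM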
Format: cell-based
Conditions: for Maximum % activity (with co-corrector) / Emax: maximum at any tested concentration; for Emax: read-out: Maximum % activity (without co-corrector)
Procedure, shortened: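 Corrector compounds were given as 8-point 3-fold series from 20 or 30 μM, with or without a 2 μM co-corrector, for 18-24 h at 33 °C. Surface HRP was read by luminol luminescence as % of positive control; variable-Hill-slope sigmoidal fitting gave EC50 from triplicate plates.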

[1] = test compound with co-corrector
[2] = test compound with co-corrector, read-out: EC50 (with co-corrector)
[3] = test compound without co-corrector
[4] = test compound without co-corrector, read-out: EC50 (without co-corrector)
[5] = test compound alone, without co-corrector, read-out: EC50 (without co-corrector)
[6] = with co-corrector, read-out: EC50 (with co-corrector)

T1 sequence (P13569 with tags, fused parts or gaps DEL508-508): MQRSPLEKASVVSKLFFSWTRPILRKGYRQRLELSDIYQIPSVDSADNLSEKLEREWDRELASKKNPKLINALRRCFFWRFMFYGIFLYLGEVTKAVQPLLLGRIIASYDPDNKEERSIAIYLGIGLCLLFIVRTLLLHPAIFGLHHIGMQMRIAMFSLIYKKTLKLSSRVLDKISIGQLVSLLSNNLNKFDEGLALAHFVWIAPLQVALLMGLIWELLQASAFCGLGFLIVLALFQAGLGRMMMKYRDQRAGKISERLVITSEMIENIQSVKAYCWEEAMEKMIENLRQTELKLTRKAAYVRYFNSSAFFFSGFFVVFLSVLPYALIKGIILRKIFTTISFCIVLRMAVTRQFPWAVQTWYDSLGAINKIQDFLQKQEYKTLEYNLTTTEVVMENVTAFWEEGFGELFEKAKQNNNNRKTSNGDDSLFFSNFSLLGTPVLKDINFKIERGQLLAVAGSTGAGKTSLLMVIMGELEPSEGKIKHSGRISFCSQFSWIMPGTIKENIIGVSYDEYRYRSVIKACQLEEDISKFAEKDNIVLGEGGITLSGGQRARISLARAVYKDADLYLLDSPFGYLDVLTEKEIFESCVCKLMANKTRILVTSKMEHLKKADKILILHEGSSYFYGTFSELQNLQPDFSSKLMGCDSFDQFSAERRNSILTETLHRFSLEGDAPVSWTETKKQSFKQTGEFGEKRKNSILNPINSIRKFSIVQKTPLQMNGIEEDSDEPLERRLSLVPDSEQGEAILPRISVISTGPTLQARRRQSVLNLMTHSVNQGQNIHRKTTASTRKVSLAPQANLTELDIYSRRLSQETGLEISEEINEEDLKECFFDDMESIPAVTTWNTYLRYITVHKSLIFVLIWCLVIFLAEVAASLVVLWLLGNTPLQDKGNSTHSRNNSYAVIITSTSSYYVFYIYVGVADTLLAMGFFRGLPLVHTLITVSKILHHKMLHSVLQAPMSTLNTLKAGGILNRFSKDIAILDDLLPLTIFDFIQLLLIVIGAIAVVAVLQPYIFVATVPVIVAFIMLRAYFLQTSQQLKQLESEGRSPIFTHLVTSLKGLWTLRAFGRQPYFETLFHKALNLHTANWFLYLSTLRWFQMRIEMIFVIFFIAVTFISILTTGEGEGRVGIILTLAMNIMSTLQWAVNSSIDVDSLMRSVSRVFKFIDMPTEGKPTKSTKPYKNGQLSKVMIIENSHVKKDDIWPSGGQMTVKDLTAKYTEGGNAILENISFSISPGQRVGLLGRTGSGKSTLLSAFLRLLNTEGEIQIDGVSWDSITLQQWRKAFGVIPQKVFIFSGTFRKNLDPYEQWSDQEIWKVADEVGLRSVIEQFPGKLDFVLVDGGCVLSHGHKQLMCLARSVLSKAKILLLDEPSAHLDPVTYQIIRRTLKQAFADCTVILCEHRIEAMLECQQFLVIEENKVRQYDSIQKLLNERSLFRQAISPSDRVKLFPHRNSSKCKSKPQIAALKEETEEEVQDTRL

SMILES	Maximum % activity (with co-corrector) [1]	EC50 [2]	Emax [3]	EC50 [4]	EC50 [5]	Maximum % activity (with co-corrector) (with co-corrector)	EC50 [6]	Emax (without co-corrector)	EC50 (with co-corrector) [1]	EC50 (without co-corrector) [3]
O=C(NS(=O)(=O)c1cccc2[nH]ccc12)C1(c2cc(C3CCC3)cnc2N2CCCC2)CC1 [Example GI-30, 1-[5-cyclobutyl-2-(pyrrolidin-1-yl)pyridin-3-yl]-N-(1H-indole-4-sulfonyl)cyclopropane-1-carboxamide]	+++ (≥350)	< 3 µM	> 150%	< 3 µM	–	–	–	–	–	–
COc1ccc(C)cc1C1(C(=O)NS(=O)(=O)c2cccc3[nH]ccc23)CC1 [Example I-49, N-(1H-indole-4-sulfonyl)-1-(2-methoxy-5-methylphenyl)cyclopropane-1-carboxamide]	–	–	–	–	< 3 µM	+++ (≥350)	< 3 µM	> 150%	–	–
COc1cnc(OCC(C)C)c(C2(C(=O)NS(=O)(=O)c3cccc4nc(C)ccc34)CC2)c1 [Example GI-79, 1-[5-methoxy-2-(2-methylpropoxy)pyridin-3-yl]-N-(2-methylquinoline-5-sulfonyl)cyclopropane-1-carboxamide]	+++ (≥350)	< 3 µM	> 150%	< 3 µM	–	–	–	–	–	–
CCc1cnc(N2CCCC2)c(C2(C(=O)NS(=O)(=O)c3cccc4nc(C)ccc34)CC2)c1 [GII-31, 1-[5-ethyl-2-(pyrrolidin-1-yl)pyridin-3-yl]-N-(2-methylquinoline-5-sulfonyl)cyclopropane-1-carboxamide]	+++ (≥350)	3 to 10 µM	> 150%	3 to 10 µM	–	–	–	–	–	–
Cc1ccc2c(S(=O)(=O)NC(=O)C3(c4cc(C5CCC5)cnc4OC(C)C)CC3)cccc2n1 [Example GI-23, 1-{5-cyclobutyl-2-[(propan-2-yl)oxy]pyridin-3-yl}-N-(2-methylquinoline-5-sulfonyl)cyclopropane-1-carboxamide]	–	–	–	–	< 3 µM	+++ (≥350)	< 3 µM	> 150%	–	–
Cc1ccc2c(S(=O)(=O)NC(=O)C3(c4cc(N5CCCC5)cnc4OC(C)C)CC3)cccc2n1 [Example GI-63, N-(2-methylquinoline-5-sulfonyl)-1-{2-[(propan-2-yl)oxy]-5-(pyrrolidin-1-yl)pyridin-3-yl}cyclopropane-1-carboxamide]	+++ (≥350)	< 3 µM	> 150%	< 3 µM	–	–	–	–	–	–
Cc1ccc2c(S(=O)(=O)NC(=O)C3(c4cc(C5CCC5)cnc4OCC(C)C)CC3)cccc2n1 [Example GI-53, 1-[5-cyclobutyl-2-(2-methylpropoxy)pyridin-3-yl]-N-(2-methylquinoline-5-sulfonyl)cyclopropane-1-carboxamide]	+++ (≥350)	< 3 µM	> 150%	< 3 µM	–	–	–	–	–	–
O=C(NS(=O)(=O)c1cccc2ncccc12)C1(c2cc(C3CCC3)cnc2N2CCOCC2)CC1 [GII-28, 1-[5-cyclobutyl-2-(morpholin-4-yl)pyridin-3-yl]-N-(quinoline-5-sulfonyl)cyclopropane-1-carboxamide]	++ (≥150 and <350)	3 to 10 µM	50 to 150%	–	–	–	–	–	–	++^a
CCc1ncc(OC)cc1C1(C(=O)NS(=O)(=O)c2cccc3ncccc23)CC1 [GII-17, 1-(2-ethyl-5-methoxypyridin-3-yl)-N-(quinoline-5-sulfonyl)cyclopropane-1-carboxamide]	++ (≥150 and <350)	3 to 10 µM	< 50%	3 to 10 µM	–	–	–	–	–	–
CC(C)Oc1cc(C2CCC2)cnc1C1(C(=O)NS(=O)(=O)c2cccc3ncccc23)CC1 [GII-27, 1-{5-cyclobutyl-3-[(propan-2-yl)oxy]pyridin-2-yl}-N-(quinoline-5-sulfonyl)cyclopropane-1-carboxamide]	++ (≥150 and <350)	3 to 10 µM	50 to 150%	3 to 10 µM	–	–	–	–	–	–
COc1ccc(C(C)C)cc1C1(C(=O)NS(=O)(=O)c2cccc3ncccc23)CC1 [Example I-35, 1-[2-methoxy-5-(propan-2-yl)phenyl]-N-(quinoline-5-sulfonyl)cyclopropane-1-carboxamide]	–	–	–	–	< 3 µM	+++ (≥350)	< 3 µM	> 150%	–	–
COc1ccc(C2CCC2)cc1C1(C(=O)NS(=O)(=O)c2cccc3nc(N)ccc23)CC1 [Example I-67, N-(2-aminoquinoline-5-sulfonyl)-1-(5-cyclobutyl-2-methoxyphenyl)cyclopropane-1-carboxamide]	–	–	–	–	3 to 10 µM	+++ (≥350)	< 3 µM	> 150%	–	–

Continued, values first:

Maximum % activity (with co-corrector) [1]	EC50 [2]	Emax [3]	EC50 [4]	EC50 [5]	Maximum % activity (with co-corrector) (with co-corrector)	EC50 [6]	Emax (without co-corrector)	EC50 (with co-corrector) [1]	EC50 (without co-corrector) [3]	SMILES
+ (<150)	> 10 µM	< 50%	> 10 µM	–	–	–	–	–	–	CN1CCN(c2ncc(C3CC3)cc2C2(C(=O)NS(=O)(=O)c3cccc4[nH]ccc34)CC2)CC1 [GIII-36]
+ (<150)	> 10 µM	< 50%	> 10 µM	–	–	–	–	–	–	CCc1cnc(N2CCN(C)CC2)c(C2(C(=O)NS(=O)(=O)c3cccc4ncccc34)CC2)c1 [GIII-33]
++ (≥150 and <350)	–	50 to 150%	–	–	–	–	–	++^a	++^a	O=C(NS(=O)(=O)c1cccc2ncccc12)C1(c2cc(C3CC3)cnc2C(F)(F)F)CC1 [GIII-10]
–	–	–	–	> 10 µM	+ (<150)	> 10 µM	< 50%	–	–	CC(=O)N1CCc2cc(S(=O)(=O)NC(=O)C3(c4cccc(Cl)c4)CC3)ccc21 [Example III-76, N-(1-acetyl-2,3-dihydro-1H-indole-5-sulfonyl)-1-(3-chlorophenyl)cyclopropane-1-carboxamide]
–	–	–	–	3 to 10 µM	+++ (≥350)	3 to 10 µM	> 150%	–	–	COc1cccc(C)c1C1(C(=O)NS(=O)(=O)c2cccc3c2ccn3C)CC1 [Example III-102]
–	–	–	–	< 3 µM	+++ (≥350)	< 3 µM	> 150%	–	–	CCOc1ccc(C)cc1C1(C(=O)NS(=O)(=O)c2cccc3nc(N(C)C)ccc23)CC1 [Example III-134, N-[2-(dimethylamino)quinoline-5-sulfonyl]-1-(2-ethoxy-5-methylphenyl)cyclopropane-1-carboxamide]
–	–	–	–	> 10 µM	+ (<150)	> 10 µM	< 50%	–	–	O=C(NS(=O)(=O)c1ccc(-n2cccn2)cc1)C1(c2cccc(Cl)c2)CC1 [Example III-73, 1-(3-chlorophenyl)-N-[4-(1H-pyrazol-1-yl)benzene-1-sulfonyl]cyclopropane-1-carboxamide]
–	–	–	–	3 to 10 µM	+++ (≥350)	< 3 µM	> 150%	–	–	COc1cc(C2CCC2)cc(OC)c1C1(C(=O)NS(=O)(=O)c2cccc3ncn(C)c23)CC1 [Example III-123, 1-(4-cyclobutyl-2,6-dimethoxyphenyl)-N-(1-methyl-1H-benzimidazole-7-sulfonyl)cyclopropane-1-carboxamide]
–	–	–	–	3 to 10 µM	+++ (≥350)	3 to 10 µM	> 150%	–	–	COc1ncc(C(F)(F)F)cc1C1(C(=O)NS(=O)(=O)c2cccc3[nH]ncc23)CC1 [Example III-98, N-(1H-indazole-4-sulfonyl)-1-[2-methoxy-5-(trifluoromethyl)pyridin-3-yl]cyclopropane-1-carboxamide]
